Assay results published in ChEMBL document CHEMBL1201862, “PubChem BioAssay data set” (2004).
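Tested at 5 concentrations; 48 h exposure; 96-well plates; endpoints linearly interpolated, else capped at highest concentration. Abbreviation: GI50, concentration required for 50% inhibition of growth.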 The source made the active and inactive calls. No stated cut-off is given here; in the data, active = GI50 up to about 1.1 µM and inactive = higher.

Columns and labels:
Experiment in all cases: NCI tumour cell line growth inhibition, 48 h
U-251 = tested on: U-251
MDA-MB-435 = tested on: MDA-MB-435
SF-539 = tested on: SF-539
NCI-H460 = tested on: NCI-H460
HT-29 = tested on: HT-29
CAKI-1 = tested on: CAKI-1
COLO 205 = tested on: COLO 205
NCI-H23 = tested on: NCI-H23
UO-31 = tested on: UO-31
HCT-116 = tested on: HCT-116
RXF 393 = tested on: RXF 393
HCT-15 = tested on: HCT-15
SN12C = tested on: SN12C
HL-60 = tested on: HL-60
K562 = tested on: K562
NCI-H522 = tested on: NCI-H522
HOP-62 = tested on: HOP-62
SW-620 = tested on: SW-620
SF-295 = tested on: SF-295
SK-MEL-2 = tested on: SK-MEL-2
KM12 = tested on: KM12
M14 = tested on: M14
SF-268 = tested on: SF-268
TK-10 = tested on: TK-10
UACC-62 = tested on: UACC-62
ACHN = tested on: ACHN
SK-OV-3 = tested on: SK-OV-3
LOX IMVI = tested on: LOX IMVI
EKVX = tested on: EKVX
SNB-19 = tested on: SNB-19
NCI/ADR-RES = tested on: NCI/ADR-RES
Hs-578T = tested on: Hs-578T
IGROV-1 = tested on: IGROV-1
Malme-3M = tested on: Malme-3M
BT-549 = tested on: BT-549
MCF7 = tested on: MCF7
786-0 = tested on: 786-0
MOLT-4 = tested on: MOLT-4
MDA-N = tested on: MDA-N
SK-MEL-5 = tested on: SK-MEL-5
OVCAR-4 = tested on: OVCAR-4
OVCAR-3 = tested on: OVCAR-3
PC-3 = tested on: PC-3
SK-MEL-28 = tested on: SK-MEL-28
RPMI-8226 = tested on: RPMI-8226
OVCAR-8 = tested on: OVCAR-8
SNB-75 = tested on: SNB-75
MDA-MB-231 = tested on: MDA-MB-231
T47D = tested on: T47D
SR = tested on: SR
A549 = tested on: A549
DU-145 = tested on: DU-145
OVCAR-5 = tested on: OVCAR-5
CCRF-CEM = tested on: CCRF-CEM
UACC-257 = tested on: UACC-257
NCI-H226 = tested on: NCI-H226
HCC 2998 = tested on: HCC 2998
HOP-92 = tested on: HOP-92

C/C(=N\Nc1nc2ccccc2[nH]1)c1ccc2ccccc2n1
GI50 (U-251): 1.81 µM (inactive)
GI50 (MDA-MB-435): 4.29 µM (inactive)
GI50 (SF-539): 3.27 µM (inactive)
GI50 (NCI-H460): 2.25 µM (inactive)
GI50 (HT-29): 0.948 µM (active)
GI50 (CAKI-1): 0.339 µM (active)
GI50 (COLO 205): 3.15 µM (inactive)
GI50 (NCI-H23): 3.89 µM (inactive)
GI50 (UO-31): 1.06 µM (active)
GI50 (HCT-116): 1.95 µM (inactive)
GI50 (RXF 393): 2.73 µM (inactive)
GI50 (HCT-15): 1.29 µM
GI50 (SN12C): 1.52 µM (inactive)
GI50 (HL-60): 1.8 µM (inactive)
GI50 (K562): 2.39 µM (inactive)
GI50 (NCI-H522): 2.33 µM (inactive)
GI50 (HOP-62): 2.78 µM (inactive)
GI50 (SW-620): 3.58 µM (inactive)
GI50 (SF-295): 2.49 µM (inactive)
GI50 (SK-MEL-2): 1.67 µM (inactive)
GI50 (KM12): 2.08 µM (inactive)
GI50 (M14): 1.24 µM (inactive)
GI50 (SF-268): 1.97 µM (inactive)
GI50 (TK-10): 3.04 µM (inactive)
GI50 (UACC-62): 2.6 µM (inactive)
GI50 (ACHN): 3.15 µM (inactive)
GI50 (SK-OV-3): 8.87 µM (inactive)
GI50 (LOX IMVI): 2.11 µM (inactive)
GI50 (EKVX): 0.678 µM (active)
GI50 (SNB-19): 2.75 µM (inactive)
GI50 (NCI/ADR-RES): 1.85 µM (inactive)
GI50 (Hs-578T): 10.8 µM (inactive)
GI50 (IGROV-1): 0.129 µM (active)
GI50 (Malme-3M): 2.4 µM (inactive)
GI50 (BT-549): > 100 µM (inactive)
GI50 (MCF7): 2.17 µM (inactive)
GI50 (786-0): 1.9 µM (inactive)
GI50 (MOLT-4): 755 nM (active)
GI50 (MDA-N): 3.97 µM (inactive)
GI50 (SK-MEL-5): 1.46 µM (inactive)
GI50 (OVCAR-4): 1.85 µM (inactive)
GI50 (OVCAR-3): 0.592 µM (active)
GI50 (PC-3): 1.44 µM (inactive)
GI50 (SK-MEL-28): 3.79 µM (inactive)
GI50 (RPMI-8226): 0.897 µM (active)
GI50 (OVCAR-8): 3.33 µM (inactive)
GI50 (SNB-75): 2.19 µM (inactive)
GI50 (MDA-MB-231): 1.87 µM (inactive)
GI50 (T47D): 0.343 µM (active)
GI50 (SR): 0.08 µM (active)
GI50 (A549): 2.52 µM (inactive)
GI50 (DU-145): 1.91 µM (inactive)
GI50 (OVCAR-5): 2.25 µM (inactive)
GI50 (CCRF-CEM): 1.05 µM (active)
GI50 (UACC-257): 3.55 µM (inactive)

NC1Cc2ccccc2OC1=O (stereo not drawn)
GI50 (U-251): > 100 µM (inactive)
GI50 (MDA-MB-435): > 100 µM (inactive)
GI50 (SF-539): > 100 µM (inactive)
GI50 (NCI-H460): > 100 µM (inactive)
GI50 (HT-29): > 100 µM (inactive)
GI50 (CAKI-1): > 100 µM (inactive)
GI50 (COLO 205): > 100 µM (inactive)
GI50 (NCI-H23): > 100 µM (inactive)
GI50 (UO-31): > 100 µM (inactive)
GI50 (RXF 393): > 100 µM (inactive)
GI50 (HCT-15): > 100 µM
GI50 (SN12C): > 100 µM (inactive)
GI50 (K562): > 100 µM (inactive)
GI50 (NCI-H522): > 100 µM (inactive)
GI50 (HOP-62): > 100 µM (inactive)
GI50 (SW-620): > 100 µM (inactive)
GI50 (SF-295): > 100 µM (inactive)
GI50 (SK-MEL-2): > 100 µM (inactive)
GI50 (KM12): > 100 µM (inactive)
GI50 (M14): > 100 µM (inactive)
GI50 (SF-268): > 100 µM (inactive)
GI50 (TK-10): > 100 µM (inactive)
GI50 (UACC-62): > 100 µM (inactive)
GI50 (ACHN): > 100 µM (inactive)
GI50 (SK-OV-3): > 100 µM (inactive)
GI50 (EKVX): > 100 µM (inactive)
GI50 (SNB-19): > 100 µM (inactive)
GI50 (NCI/ADR-RES): > 100 µM (inactive)
GI50 (Hs-578T): > 100 µM (inactive)
GI50 (IGROV-1): > 100 µM (inactive)
GI50 (Malme-3M): > 100 µM (inactive)
GI50 (BT-549): > 100 µM (inactive)
GI50 (NCI-H226): > 100 µM (inactive)
GI50 (MCF7): > 100 µM (inactive)
GI50 (786-0): > 100 µM (inactive)
GI50 (HCC 2998): > 100 µM (inactive)
GI50 (MOLT-4): > 100000 nM (inactive)
GI50 (MDA-N): > 10 µM (inactive)
GI50 (SK-MEL-5): > 100 µM (inactive)
GI50 (OVCAR-3): > 100 µM (inactive)
GI50 (PC-3): > 100 µM (inactive)
GI50 (SK-MEL-28): > 100 µM (inactive)
GI50 (RPMI-8226): > 100 µM (inactive)
GI50 (OVCAR-8): > 100 µM (inactive)
GI50 (SNB-75): > 100 µM (inactive)
GI50 (MDA-MB-231): > 100 µM (inactive)
GI50 (T47D): > 100 µM (inactive)
GI50 (SR): > 100 µM (inactive)
GI50 (A549): > 100 µM (inactive)
GI50 (DU-145): > 100 µM (inactive)
GI50 (OVCAR-5): > 100 µM (inactive)
GI50 (UACC-257): > 100 µM (inactive)

CN(C)CCNc1ccc([N+](=O)[O-])c2sc3ccccc3c(=O)c12
GI50 (U-251): 3.48 µM (inactive)
GI50 (MDA-MB-435): 5.19 µM (inactive)
GI50 (SF-539): 3.65 µM (inactive)
GI50 (NCI-H460): 1.65 µM (inactive)
GI50 (HT-29): 2.57 µM (inactive)
GI50 (COLO 205): 2.86 µM (inactive)
GI50 (NCI-H23): 4.16 µM (inactive)
GI50 (HOP-92): 3.84 µM (inactive)
GI50 (UO-31): 4.34 µM (inactive)
GI50 (HCT-116): 2.47 µM (inactive)
GI50 (RXF 393): 14.4 µM (inactive)
GI50 (HCT-15): 3.67 µM
GI50 (SN12C): 4.46 µM (inactive)
GI50 (HL-60): 2.66 µM (inactive)
GI50 (K562): 4.43 µM (inactive)
GI50 (NCI-H522): 1.56 µM (inactive)
GI50 (HOP-62): 2.81 µM (inactive)
GI50 (SW-620): 2.43 µM (inactive)
GI50 (SF-295): 4.24 µM (inactive)
GI50 (SK-MEL-2): 14.1 µM (inactive)
GI50 (KM12): 5.19 µM (inactive)
GI50 (M14): 6.71 µM (inactive)
GI50 (SF-268): 4.21 µM (inactive)
GI50 (TK-10): 12.3 µM (inactive)
GI50 (UACC-62): 4.61 µM (inactive)
GI50 (ACHN): 2.51 µM (inactive)
GI50 (SK-OV-3): 7.71 µM (inactive)
GI50 (EKVX): 4.5 µM (inactive)
GI50 (SNB-19): 5.14 µM (inactive)
GI50 (NCI/ADR-RES): 3.44 µM (inactive)
GI50 (Hs-578T): 5.52 µM (inactive)
GI50 (IGROV-1): 1.73 µM (inactive)
GI50 (Malme-3M): 4.27 µM (inactive)
GI50 (BT-549): 2.1 µM (inactive)
GI50 (NCI-H226): 6.11 µM (inactive)
GI50 (MCF7): 3.41 µM (inactive)
GI50 (786-0): 3.38 µM (inactive)
GI50 (HCC 2998): 2.92 µM (inactive)
GI50 (MOLT-4): 706 nM (active)
GI50 (MDA-N): 4.92 µM (inactive)
GI50 (SK-MEL-5): 8.63 µM (inactive)
GI50 (OVCAR-4): 3.1 µM (inactive)
GI50 (OVCAR-3): 3.68 µM (inactive)
GI50 (PC-3): 4.11 µM (inactive)
GI50 (SK-MEL-28): 7.08 µM (inactive)
GI50 (RPMI-8226): 2.64 µM (inactive)
GI50 (OVCAR-8): 3.63 µM (inactive)
GI50 (SNB-75): 4.68 µM (inactive)
GI50 (MDA-MB-231): 1.99 µM (inactive)
GI50 (T47D): 13.7 µM (inactive)
GI50 (SR): 1.56 µM (inactive)
GI50 (A549): 3.83 µM (inactive)
GI50 (DU-145): 5.07 µM (inactive)
GI50 (OVCAR-5): 3.03 µM (inactive)
GI50 (CCRF-CEM): 2.26 µM (inactive)
GI50 (UACC-257): 6.28 µM (inactive)
